From US10759793B2, “2-(pyrazolopyridin-3-yl)pyrimidine derivatives as JAK inhibitors” (ALMIRALL, S.A., priority 2015, dated 2020)

How the values were obtained:
Format in all cases: biochemical
JAK3 = JAK3 (Homo sapiens (Human), UniProt P52333); assay: In vitro JAK kinase assay (TR-FRET), JAK3; details: catalytic domain aa 795-1124, GST-fusion; ATP 0.6 μM; peptide 140 nM; 30 minutes at room temperature
Experimental: (§1) Compounds were screened for their ability to inhibit JAK1, JAK2 and JAK3 using the assays as indicated below. […] The enzymatic activity was assayed using as substrate a biotinylated peptide, poly (GT)-Biotin (CisBio). […] The degree of phosphorylation was detected by TR-FRET (time-resolved fluorescence energy transfer). […] The enzymatic reactions took place for 30 minutes at room temperature. […] Incubate for 3 h and read on Victor 2V spectrofluorometer (Perkin Elmer) set to read fluorescence resonance energy transfer.

JAK2 = JAK2 (Homo sapiens (Human), UniProt O60674); assay: In vitro JAK kinase assay (TR-FRET), JAK2; details: catalytic domain aa 826-1132, GST-fusion; ATP 0.2 μM; peptide 20 nM; 30 minutes at room temperature
Chain of JAK2 (O60674 826-1132): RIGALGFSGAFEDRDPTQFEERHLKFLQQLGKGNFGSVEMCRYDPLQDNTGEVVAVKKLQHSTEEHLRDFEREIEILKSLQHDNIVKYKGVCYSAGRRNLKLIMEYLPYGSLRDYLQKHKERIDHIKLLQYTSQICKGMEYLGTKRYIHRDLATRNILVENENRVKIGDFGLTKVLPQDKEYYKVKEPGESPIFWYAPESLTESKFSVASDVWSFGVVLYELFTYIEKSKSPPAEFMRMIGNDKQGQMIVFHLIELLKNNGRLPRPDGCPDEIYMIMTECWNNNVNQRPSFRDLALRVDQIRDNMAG
Experimental: as §1

JAK1 = JAK1 (Homo sapiens (Human), UniProt P23458); assay: In vitro JAK kinase assay (TR-FRET), JAK1; details: catalytic domain aa 850-1154, GST-fusion; ATP 3 μM; peptide 60 nM; 30 minutes at room temperature
Chain of JAK1 (P23458 850-1154): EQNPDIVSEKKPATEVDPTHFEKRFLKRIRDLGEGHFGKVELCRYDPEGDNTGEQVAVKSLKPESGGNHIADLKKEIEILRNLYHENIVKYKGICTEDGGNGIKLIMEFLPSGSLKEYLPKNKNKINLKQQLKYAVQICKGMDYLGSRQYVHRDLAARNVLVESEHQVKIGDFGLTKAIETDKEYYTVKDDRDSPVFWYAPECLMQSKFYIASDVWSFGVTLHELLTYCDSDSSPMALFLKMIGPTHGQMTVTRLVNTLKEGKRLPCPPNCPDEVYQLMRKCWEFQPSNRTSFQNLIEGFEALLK
Experimental: as §1

Chain of JAK3 (P52333 795-1124): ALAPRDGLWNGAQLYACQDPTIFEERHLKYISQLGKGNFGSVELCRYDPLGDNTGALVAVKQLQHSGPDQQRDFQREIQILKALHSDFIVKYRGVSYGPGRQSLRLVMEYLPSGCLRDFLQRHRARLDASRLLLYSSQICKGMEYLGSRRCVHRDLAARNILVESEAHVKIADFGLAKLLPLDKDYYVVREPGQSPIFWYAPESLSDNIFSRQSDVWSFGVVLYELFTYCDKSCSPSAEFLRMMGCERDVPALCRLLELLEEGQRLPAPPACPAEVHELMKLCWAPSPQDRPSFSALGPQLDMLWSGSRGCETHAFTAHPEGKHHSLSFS

SMILES | IC50 (JAK3) [nM] | IC50 (JAK2) [nM] | IC50 (JAK1) [nM]
CN1CCN(c2nc(-c3cnn4ccccc34)nc(O[C@@H]3CCCN(C(=O)CC#N)C3)c2F)CC1 [Example 68, 3-((3R)-3-{[5-Fluoro-6-(4-methylpiperazin-1-yl)-2-pyrazolo[1,5-a]pyridin-3-ylpyrimidin-4-yl]oxy}piperidin-1-yl)-3-oxopropanenitrile] | 6 | 1 | 48
O=C(CO)N1CCC[C@@H](Oc2nc(-c3cnn4ccccc34)nc(N3CCOCC3)c2F)C1 [Example 52, 2-{(3R)-3-[(5-Fluoro-6-morpholin-4-yl-2-pyrazolo[1,5-a]pyridin-3-ylpyrimidin-4-yl)oxy]piperidin-1-yl}-2-oxoethanol] | 11 | 1 | 11
N#CCC(=O)N1CCC[C@@H](Oc2nc(-c3cnn4ccccc34)nc(NCCO)c2F)C1 [Example 70, 3-[(3R)-3-({5-Fluoro-6-[(2-hydroxyethyl)amino]-2-pyrazolo[1,5-a]pyridin-3-ylpyrimidin-4-yl}oxy)piperidin-1-yl]-3-oxopropanenitrile] | 8 | 3 | 28
COC[C@H](C)Oc1nc(-c2cnn3ccccc23)nc(N[C@@H]2CCCN(C(=O)CO)C2)c1F [Example 58, 2-[(3R)-3-({5-Fluoro-6-[(1S)-2-methoxy-1-methylethoxy]-2-pyrazolo[1,5-a]pyridin-3-ylpyrimidin-4-yl}amino)piperidin-1-yl]-2-oxoethanol] | 7 | 2 | 66
Cc1cc(-c2nc(-c3cnn4ccccc34)nc(N[C@@H]3CCCN(C(=O)CO)C3)c2F)ccn1 [Example 34, 2-((3R)-3-{[5-Fluoro-6-(2-methylpyridin-4-yl)-2-pyrazolo[1,5-a]pyridin-3-ylpyrimidin-4-yl]amino}piperidin-1-yl)-2-oxoethanol] | 4 | 0.2 | 2
Cc1cc(-c2nc(-c3cnn4ccccc34)nc(N(C)[C@@H]3CCCN(C(=O)CC#N)C3)c2F)ccn1 [Example 21, 3-{(3R)-3-[[5-fluoro-6-(2-methylpyridin-4-yl)-2-pyrazolo[1,5-a]pyridin-3-ylpyrimidin-4-yl](methyl)amino]piperidin-1-yl}-3-oxopropanenitrile] | 11 | 1 | 6
COc1nc(-c2cnn3ccccc23)nc(N[C@@H]2CCCN(c3cnc(C#N)cn3)C2)c1F [Example 56, 5-{(3R)-3-[(5-fluoro-6-methoxy-2-pyrazolo[1,5-a]pyridin-3-ylpyrimidin-4-yl)amino]piperidin-1-yl}pyrazine-2-carbonitrile] | 8 | 7 | 43

The next compounds have a lower IC50 (JAK3) than those just listed; values first:

IC50 (JAK3) [nM] | IC50 (JAK2) [nM] | IC50 (JAK1) [nM] | SMILES
3 | 1 | 8 | O=C(CO)N1CCC[C@@H](Nc2nc(-c3cnn4ccccc34)nc(OCCCO)c2F)C1 [Example 41, 3-[(5-Fluoro-6-{[(3R)-1-glycoloylpiperidin-3-yl]amino}-2-pyrazolo[1,5-a]pyridin-3-ylpyrimidin-4-yl)oxy]propan-1-ol]
2 | 0.5 | 9 | N#CC[C@H]1CC[C@H](Nc2nc(-c3cnn4ccccc34)nc(OCCO)c2F)CC1 [Example 5, (Trans-4-{[5-fluoro-6-(2-hydroxyethoxy)-2-pyrazolo[1,5-a]pyridin-3-ylpyrimidin-4-yl]amino}cyclohexyl)acetonitrile]
1 | 0.5 | 1 | N#CCC(=O)N1CCC[C@@H](Nc2nc(-c3cnn4ccccc34)nc(OCCO)c2F)C1 [Example 14, 3-((3R)-3-{[5-fluoro-6-(2-hydroxyethoxy)-2-pyrazolo[1,5-a]pyridin-3-ylpyrimidin-4-yl]amino}piperidin-1-yl)-3-oxopropanenitrile]
1 | 0.7 | 4 | CCOCCOc1nc(-c2cnn3ccccc23)nc(N[C@@H]2CCCN(C(=O)CC#N)C2)c1F [Example 16, 3-((3R)-3-{[6-(2-ethoxyethoxy)-5-fluoro-2-pyrazolo[1,5-a]pyridin-3-ylpyrimidin-4-yl]amino}piperidin-1-yl)-3-oxopropanenitrile]
